The target in test [1] is T1, κ-opioid receptor (Homo sapiens, UniProt P41145). Briefly: κ-opioid receptor [35S]GTPγS functional assay, HEK-293 or CHO cells. The class given is biochemical. Also on record: expressed in transfected cells; host or cells: HEK-293. Conditions: for Emax: relative to U69,593. Here is the method: (§1) Plates were incubated for 30 min at a temperature of about 25° C. with shaking.

Test [2] concerns the target T2, μ-opioid receptor (Homo sapiens, UniProt P35372). Nature of the test: μ-opioid receptor radioligand binding assay ([3H]-diprenorphine). Also on record: purchased Perkin Elmer, Shelton, Conn; host or cells: HEK-293 or CHO. The settings on record: HEK-293 or CHO cells; read-out: Ki (nM) Opioid Receptor μ. Here is the method: μ-opioid Receptor Binding Assay Procedures: Radioligand dose-displacement binding assays for μ-opioid receptors used 0.3 nM [^3H]-diprenorphine (Perkin Elmer, Shelton, Conn.), with […] membrane protein/well in a final volume of 500 μl binding buffer (10 mM MgCl2, 1 mM EDTA, 5% DMSO, 50 mM HEPES, pH 7.4). Reactions were carried out in the absence or presence of increasing concentrations of unlabeled naloxone. All reactions were conducted in 96-deep well polypropylene plates for 2 hr at room temperature. […] The data were analyzed using the one-site competition curve fitting functions in GraphPad PRISM™ v. 3.0 or higher (San Diego, Calif.), or an in-house function for one-site competition curve-fitting.

For test [3], the target named is T1, κ-opioid receptor. Nature of the test: κ-opioid receptor radioligand binding assay ([3H]-U69,593). Also on record: expressed in transfected cells; host or cells: HEK-293. Here is the method: κ-opioid Receptor Binding Assay Procedures: Membranes from recombinant HEK-293 cells expressing the human κ opioid receptor (κ) (cloned in house) were prepared by lysing cells in ice cold hypotonic buffer (2.5 mM MgCl2, 50 mM HEPES, pH 7.4) (10 mL/10 cm dish) followed by homogenization with a tissue grinder/Teflon pestle. Membranes were collected by centrifugation at 30,000×g for 15 min at 4° C. and pellets were resuspended in hypotonic buffer to a final concentration of 1-3 mg/mL. Protein concentrations were determined using the BioRad protein assay reagent with bovine serum albumen as standard. Aliquots of κ receptor membranes were stored at −80° C.
Radioligand dose displacement assays used 0.4 nM [^3H]-U69,593 (GE Healthcare, Piscataway, N.J.; 40 Ci/mmole) with 15 μg membrane protein (recombinant κ opioid receptor expressed in HEK 293 cells; in-house prep) in a final volume of 200 μl binding buffer (5% DMSO, 50 mM Trizma base, pH 7.4). Non-specific binding was determined in the presence of 10 μM unlabeled naloxone or U69,593. All reactions were performed in 96-well polypropylene plates for 1 hr at a temperature of about 25° C.

Test [4] concerns the target T1, κ-opioid receptor. Briefly: κ-opioid receptor GTPγS functional assay, U2OS cells. The test is classed as biochemical. Also on record: expressed in transfected cells; host or cells: U-2 OS. The settings on record: U2OS cells; for EC50: read-out: GTPγS κ EC50. Here is the method: as §1
For test [5], the target named is T1, κ-opioid receptor. Nature of the test: κ-opioid receptor β-Arr2 activity response, U2OS cells. The class given is cell-based. Further details: expressed in transfected cells; host or cells: U-2 OS.
Test [6] has as its target T2, μ-opioid receptor. Briefly: biochemical. Also on record: purchased Perkin Elmer, Shelton, Conn; host or cells: HEK-293 or CHO. The settings on record: HEK-293 or CHO cells; for EC50: read-out: GTPγS μ EC50; for Emax: relative to DAMGO, read-out: GTPγS μ Emax.
Test [7] addresses T2, μ-opioid receptor. Briefly: cell-based. Further details: purchased Perkin Elmer, Shelton, Conn. Conditions: U2OS cells; for Emax: read-out: β-Arr2 μ Emax; for EC50: read-out: β-Arr2 μ EC50.
Test [8] has as its target T2, μ-opioid receptor. Nature of the test: μ-opioid receptor GTPγS functional assay, U2OS cells.
[9] abbreviates: HEK-293 or CHO cells, read-out: GTPγS κ EC50.
Setting [10] is: HEK-293 or CHO cells, read-out: Ki (nM) Opioid Receptor κ.
[11] abbreviates: U2OS cells, read-out: β-Arr2 κ EC50.

Each structure is given as a SMILES string. Read-outs that look alike come from different tables or passages of the source.

T1 sequence (P41145 whole entry): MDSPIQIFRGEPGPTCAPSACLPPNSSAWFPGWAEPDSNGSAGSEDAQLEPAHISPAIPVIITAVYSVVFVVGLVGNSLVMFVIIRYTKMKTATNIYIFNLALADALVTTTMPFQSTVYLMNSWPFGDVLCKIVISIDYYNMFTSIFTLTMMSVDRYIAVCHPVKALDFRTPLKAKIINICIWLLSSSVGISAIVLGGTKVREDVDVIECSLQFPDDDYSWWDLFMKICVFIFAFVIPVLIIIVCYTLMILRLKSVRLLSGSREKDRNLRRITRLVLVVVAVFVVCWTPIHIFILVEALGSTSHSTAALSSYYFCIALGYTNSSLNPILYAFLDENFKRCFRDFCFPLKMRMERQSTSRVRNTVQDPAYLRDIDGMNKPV
T2 sequence (P35372 whole entry, species assumed): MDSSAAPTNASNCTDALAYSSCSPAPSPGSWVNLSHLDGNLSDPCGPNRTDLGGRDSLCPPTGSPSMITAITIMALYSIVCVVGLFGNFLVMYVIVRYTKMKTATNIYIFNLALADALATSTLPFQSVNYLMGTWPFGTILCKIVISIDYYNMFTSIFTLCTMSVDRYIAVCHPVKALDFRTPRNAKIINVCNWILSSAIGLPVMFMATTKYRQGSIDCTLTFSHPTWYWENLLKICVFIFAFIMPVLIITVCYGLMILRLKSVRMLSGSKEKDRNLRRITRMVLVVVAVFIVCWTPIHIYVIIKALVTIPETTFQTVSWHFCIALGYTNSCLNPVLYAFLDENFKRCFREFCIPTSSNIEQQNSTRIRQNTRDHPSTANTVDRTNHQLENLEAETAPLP

Take `COc1ccc2c(c1)[C@@]1(CCOCc3ccccc3)CCN(CC3CC3)[C@@H](C2)[C@H]1C` [Compound 44, (2S,6R,11S)-6-(2-(benzyloxy)ethyl)-3-(cyclopropylmethyl)-8-methoxy-11-methyl-1,2,3,4,5,6-hexahydro-2,6-methanobenzo[d]azocine]: the EC50 on κ-opioid receptor [1] (setting [9]) is 854 ± 240 nM; at κ-opioid receptor [4], 327 ± 50.5 nM; on κ-opioid receptor [5] (setting [11]), 10300 ± 1050 nM. Further, the results for the Emax on κ-opioid receptor [1] (HEK-293 or CHO cells), on κ-opioid receptor [4] and at κ-opioid receptor [5] (U2OS cells) were 32 ± 0.58%, 79.3 ± 3.38% and 102 ± 11.6%, respectively. The inhibition constant (Ki) was found to be 1840 ± 222 nM at μ-opioid receptor [2] and 118 ± 8.52 nM at κ-opioid receptor [3] (setting [10]).

In the case of `COc1ccc2c(c1)[C@]1(CCNC3(C(=O)O)CC3)CCN(CC3CC3)[C@H](C2)[C@@H]1C` [Compound 34, 1-((2-((2R,6R,11R)-3-(cyclopropyl-methyl)-8-methoxy-11-methyl-2,3,4,5-tetrahydro-2,6-methanobenzo[d]azocin-6(1H)-yl)ethyl)amino)cyclopropane-1-carboxylic acid], the 50% effective concentration (EC50) at κ-opioid receptor [1] (setting [9]) turned out to be 7900 ± 2010 nM; on μ-opioid receptor [6] it was 2880 ± 310 nM. Besides, the Emax is 81.3 ± 10.2% at κ-opioid receptor [1] (HEK-293 or CHO cells) and 70.3 ± 3.71% on μ-opioid receptor [6]. Moreover, the inhibitory constant (Ki) came to 1470 ± 177 nM on μ-opioid receptor [2] and 286 ± 2.93 nM at κ-opioid receptor [3] (setting [10]).

As to `COc1ccc2c(c1)[C@]1(CCNCC(=O)O)CCN(CC3CC3)[C@H](C2)[C@@H]1C` [Compound 36, (2-((2R,6R,11R)-3-(cyclopropyl-methyl)-8-methoxy-11-methyl-2,3,4,5-tetrahydro-2,6-methanobenzo[d]azocin-6(1H)-yl)ethyl)glycine], the figures for the EC50 at κ-opioid receptor [1] (setting [9]) and at μ-opioid receptor [6] were 1980 ± 216 nM and 798 ± 24.1 nM, respectively. Besides, the Emax on κ-opioid receptor [1] (HEK-293 or CHO cells) came to 69 ± 6.24%; on μ-opioid receptor [6] it was 39 ± 1.53%. The inhibitory constant (Ki) at μ-opioid receptor [2] is 1020 ± 51.3 nM; on κ-opioid receptor [3] (setting [10]) it was 133 ± 22.9 nM.

The compound `COc1ccc2c(c1)[C@@]1(CCO)CCN(CC3CC3)[C@@H](C2)[C@H]1C` [Compound 46, 2-((2S,6R,11S)-3-(cyclopropylmethyl)-8-methoxy-11-methyl-2,3,4,5-tetrahydro-2,6-methanobenzo[d]azocin-6(1H)-yl)ethan-1-ol] registered a Ki on κ-opioid receptor [3] of 3580 ± 457 nM.

As to `COc1ccc2c(c1)[C@]1(CCN[C@@H](C)C(=O)O)CCN(CC3CC3)[C@H](C2)[C@@H]1C` [Compound 40, (2-((2R,6R,11R)-3-(cyclopropyl-methyl)-8-methoxy-11-methyl-2,3,4,5-tetrahydro-2,6-methanobenzo[d]azocin-6(1H)-yl)ethyl)-L-ananine], the EC50 at κ-opioid receptor [1] (setting [9]) amounted to 7890 ± 1340 nM; at κ-opioid receptor [4], 542 ± 13.1 nM; at μ-opioid receptor [6], 1660 ± 245 nM. Besides, the Emax on κ-opioid receptor [1] (HEK-293 or CHO cells) came out at 86.3 ± 7.54%; at κ-opioid receptor [4], 115 ± 1.73%; on μ-opioid receptor [6], 77.7 ± 6.12%. Also, the inhibition constant Ki at μ-opioid receptor [2] came out at 871 ± 211 nM; at κ-opioid receptor [3] (setting [10]) it was 248 ± 95.7 nM.

`C[C@H]1[C@H]2Cc3ccc(O)cc3[C@]1(CCNC(=O)Nc1ccc(C(=O)O)cc1)CCN2CC1CC1` [Compound 2, 4-(3-(2-((2R,6R,11R)-3-(cyclopropyl-methyl)-8-hydroxy-11-methyl-2,3,4,5-tetrahydro-2,6-methanobenzo[d]azocin-6(1H)-yl)ethyl)ureido)benzoic acid]: the Emax at μ-opioid receptor [7] was -1.5%; on μ-opioid receptor [8] (read-out: GTPγS μ Emax), 72.5 ± 1.5%; on κ-opioid receptor [4], 106 ± 2.52%; on κ-opioid receptor [5] (U2OS cells), 28.7 ± 4.67%. Further, the half-maximal effective concentration (EC50) was 1.89 ± 0.18 nM at μ-opioid receptor [8], 4.11 ± 0.25 nM on κ-opioid receptor [4] and 8.4 ± 1.86 nM at κ-opioid receptor [5] (setting [11]). In addition, at κ-opioid receptor [3] (setting [10]), the Ki was 7.08 ± 0.71 nM.

Consider `CC(C)[C@H](NCC[C@@]12CCN(CC3CC3)[C@@H](Cc3ccc(O)cc31)[C@H]2C)C(=O)O` [Compound 42, (2-((2S,6S,11S)-3-(cyclopropylmethyl)-8-hydroxy-11-methyl-2,3,4,5-tetrahydro-2,6-methanobenzo[d]azocin-6(1H)-yl)ethyl)-L-valine], for which the inhibition constant Ki at μ-opioid receptor [2] was 4610 ± 551 nM. Moreover, the inhibitory constant (Ki) on κ-opioid receptor [3] (setting [10]) amounted to 2620 ± 729 nM. On μ-opioid receptor [6], the EC50 was 2390 ± 230 nM and the Emax came to 56 ± 2.52%.

Consider `C[C@H]1[C@H]2Cc3ccc(O)cc3[C@]1(CCO)CCN2C` [Compound 12, (2R,6S,11R)-6-(2-hydroxyethyl)-3,11-dimethyl-1,2,3,4,5,6-hexahydro-2,6-methanobenzo[d]azocin-8-ol], for which the EC50 is 344 ± 32.6 nM at κ-opioid receptor [1], 386 ± 89.5 nM on μ-opioid receptor [7], 5520 ± 4650 nM on κ-opioid receptor [5] and 237 ± 36.2 nM at μ-opioid receptor [6]. Moreover, the Emax on κ-opioid receptor [1] (HEK-293 or CHO cells) was 37.1 ± 1.43%; at μ-opioid receptor [7] it was 8.83 ± 0.44%; at κ-opioid receptor [5] (U2OS cells) it was 12.7 ± 1.57%; at μ-opioid receptor [6] it was 58.2 ± 1.65%. The same compound registered a Ki on κ-opioid receptor [3] of 22.4 ± 3.57 nM.

Turning to `C[C@H]1[C@H]2Cc3ccc(O)cc3[C@]1(CCN1CCS(=O)(=O)CC1)CCN2C` [Compound 10, 4-(2-((2R,6R,11R)-8-hydroxy-3,11-dimethyl-2,3,4,5-tetrahydro-2,6-methanobenzo[d]azocin-6(1H)-yl)-ethyl)thiomorpholine 1,1-dioxide], the concentration giving a half-maximal response (EC50) at κ-opioid receptor [1] (setting [9]) worked out at 516 ± 33.9 nM; on μ-opioid receptor [7], 129 ± 34.4 nM; on κ-opioid receptor [5] (setting [11]), 4660 ± 1720 nM; on μ-opioid receptor [6] it was 133 ± 16.1 nM. Besides, the Emax at κ-opioid receptor [1] (HEK-293 or CHO cells) was found to be 26.6 ± 1.52%; on μ-opioid receptor [7], 2.83 ± 0.27%; at κ-opioid receptor [5] (U2OS cells), 17.2 ± 0.97%; on μ-opioid receptor [6] it was 51 ± 1.08%. On κ-opioid receptor [3] (setting [10]), the Ki was determined as 77 ± 2.02 nM.

As to `COC(=O)[C@@H](NCC[C@@]12CCN(CC3CC3)[C@@H](Cc3ccc(OC)cc31)[C@H]2C)C(C)C` [Compound 37, methyl (2-((2S,6S,11S)-3-(cyclopropyl-methyl)-8-methoxy-11-methyl-2,3,4,5-tetrahydro-2,6-methanobenzo[d]azocin-6(1H)-yl)ethyl)-L-valinate], the inhibitory constant (Ki) at μ-opioid receptor [2] is 13900 nM; on κ-opioid receptor [3] (setting [10]), 8990 ± 2060 nM. Further, the concentration giving a half-maximal response (EC50) on μ-opioid receptor [6] was found to be 9390 ± 820 nM. For the same compound, the Emax on μ-opioid receptor [6] is 19.3 ± 2.33%.

Consider `C[C@H]1[C@H]2Cc3ccc(O)cc3[C@]1(CCNS(C)(=O)=O)CCN2C` [Compound 13, N-(2-((2R,6S,11R)-8-hydroxy-3,11-dimethyl-2,3,4,5-tetrahydro-2,6-methanobenzo[d]azocin-6(1H)-yl)ethyl)methanesulfonamide], for which the figures for the EC50 at κ-opioid receptor [1] (setting [9]) and on μ-opioid receptor [6] were 166 ± 1.48 nM and 285 ± 72 nM, respectively. Besides, the Emax is 30.8 ± 0.19% on κ-opioid receptor [1] (HEK-293 or CHO cells), -1% at μ-opioid receptor [7] and 25 ± 1.53% on μ-opioid receptor [6]. For the same compound, the Ki on κ-opioid receptor [3] (setting [10]) was 20.5 ± 3.21 nM.

`C[C@H]1[C@H]2Cc3ccc(O)cc3[C@]1(CCNC(=O)[C@@H]1CCCCN1)CCN2CC1CC1` [Compound 11, (S)-N-(2-((2R,6R,11R)-3-(cyclopropyl-methyl)-8-hydroxy-11-methyl-2,3,4,5-tetrahydro-2,6-methanobenzo[d]azocin-6(1H)-yl)ethyl)piperidine-2-carboxamide]: the EC50 on κ-opioid receptor [1] (setting [9]) was 1.04 ± 0.059 nM; on μ-opioid receptor [6], 18.3 ± 5.58 nM. The Emax at κ-opioid receptor [1] (HEK-293 or CHO cells) was 84 ± 3.63%; on μ-opioid receptor [7], -1.5%; on μ-opioid receptor [6], 23 ± 1.38%. Moreover, the inhibition constant Ki at κ-opioid receptor [3] (setting [10]) is 0.17 ± 0.044 nM.

Values taken from patent US10130615B2, “Benzomorphan analogs and the use thereof” (priority 2014, dated 2018).
